Measurements as given in patent US4751215A, “Process for increasing the sexual activity of birds and useful domestic mammals and for preparing spermatozoa suitable to their propagation” (INNOFINANCE Altalanos Innovacios Penzintezet, priority 1985, dated 1988).

Assays:
Assay type in all cases: in vivo
male turkeys = assay: Effect of gonadoliberin analogues on the sperm production of male turkeys (Table 5)
Excerpt: In a further experiment, the sperm production of male turkeys was raised by administering the following four compounds: […]

[1] = test system: blood plasma testosterone level; assay: Blood plasma testosterone level of ganders (Table 6); conditions: for Testosterone: Treated (n = 10)
Protocol: (§1) Ganders kept under large-scale conditions and propagated in a natural way were treated with 0.5 μg/kg of D-Phe^6,desGly^10 -GnRH ethylamide analogue every 2 days, altogether 3 times. […] This manifested itself in the rise of the copulation activity (Table 6).

ganders [2] = assay: Copulation activity / libido of ganders (Table 6); conditions: for No. of daily copulations: Treated (n = 10)
Protocol: as §1

ganders [3] = assay: Sperm production and sperm quality of ganders kept under natural conditions (Table 7)
Protocol: "Hungarian" and "Landes" ganders kept under natural conditions and divided to small groups were treated with 0.5 μg/kg of D-Phe^6,desGly^10 -GnRH ethylamide analogue every 2 days, altogether 3 times.

male angora rabbits = assay: Enhancement of the sperm production of male rabbits; conditions: 3 μg every 2 days, 3 times
Protocol: In this experiment male angora rabbits showing a low libido were used from which no sperm could be obtained. The motility of the cells in their sperm was lower than 75%; thus, these animals could not be used for propagating. Of these animals 234 were treated with 3 μg of D-Phe^6,desGly^10 -GnRH ethylamide analogue every 2 days, altogether 3 times. […] These effects could be observed for several weeks; thus, the amount of the sperm usable for artificial insemination increased to its 2.5-fold value.

[4] = at the beginning of the experiment
[5] = 0.5 μg/kg every 2 days, 3 times
[6] = "Hungarian" ganders, sampling February 7
[7] = "Hungarian" ganders, sampling February 14
[8] = "Hungarian" ganders, sampling February 21
[9] = "Hungarian" ganders, sampling February 28
[10] = "Hungarian" ganders, sampling January 15 (before treatment)
[11] = "Hungarian" ganders, sampling January 31
[12] = "Hungarian" ganders, sampling March 7
[13] = "Hungarian" ganders, sampling March 12
[14] = "Landes" ganders, sampling February 7
[15] = "Landes" ganders, sampling February 14
[16] = "Landes" ganders, sampling February 21
[17] = "Landes" ganders, sampling February 28
[18] = "Landes" ganders, sampling January 15 (before treatment)
[19] = "Landes" ganders, sampling January 31
[20] = "Landes" ganders, sampling March 7
[21] = "Landes" ganders, sampling March 12

CCNC(=O)[C@@H]1CCCN1C(=O)[C@H](CCCNC(=N)N)NC(=O)[C@H](CC(C)C)NC(=O)[C@@H](Cc1ccccc1)NC(=O)[C@H](Cc1ccc(O)cc1)NC(=O)[C@H](CO)NC(=O)[C@H](Cc1c[nH]c2ccccc12)NC(=O)[C@H](Cc1c[nH]cn1)NC(=O)[C@@H]1CCC(=O)N1 [Compound "C", D-Phe^6,desGly^10 -GnRH ethylamide]
Sperm production (male turkeys; after 30 days): 0.30 ml/animal | Sperm production (male turkeys; after 60 days): 0.32 ml/animal | Sperm production (male turkeys; after 90 days): 0.34 ml/animal | Sperm production (male turkeys; after 120 days): 0.30 ml/animal | Sperm production (male turkeys; [4]): 0.21 ml/animal | blood plasma testosterone level (in words) [1, 5]: significantly raised | Testosterone ([1]; sampling October 1): 390 ± 78 pg/mL | Testosterone ([1]; sampling September 3): 378 ± 142 pg/mL | Testosterone ([1]; sampling September 10): 470 ± 133 pg/mL | Testosterone ([1]; sampling September 17): 879 ± 145 pg/mL | Testosterone ([1]; sampling September 24): 695 ± 125 pg/mL | libido of the animals (ganders [2]; [5]): significantly raised | duration of the high copulation activity (ganders [2]; 0.5 μg/kg, ganders): maintained at this high level for one additional month | No. of daily copulations (ganders [2]; October 1): 10 | No. of daily copulations (ganders [2]; September 3): 9 | No. of daily copulations (ganders [2]; September 10): 7 | No. of daily copulations (ganders [2]; September 17): 12 | No. of daily copulations (ganders [2]; September 24): 13 | duration of the sperm production increase (ganders [3]; 0.5 μg/kg every 2 days, 3 times, "Hungarian" and "Landes" ganders): lasting for about one month and a half | Sperm (ganders [3]; "Hungarian" ganders, 0.5 μg/kg on January 28, 30, February 1, sampling January 15 (before treatment)): 0.19 mL | Motility of the spermatozoa (ganders [3]; [6]): good | No. of spermatozoa (ganders [3]; [6]): 3.2 10^6 /mm^3 | Ratio of dead + deficient cells (ganders [3]; [6]): 8% | Sperm (ganders [3]; [6]): 0.48 mL | Motility of the spermatozoa (ganders [3]; [7]): good | No. of spermatozoa (ganders [3]; [7]): 3.0 10^6 /mm^3 | Ratio of dead + deficient cells (ganders [3]; [7]): 10% | Sperm (ganders [3]; [7]): 0.56 mL | Motility of the spermatozoa (ganders [3]; [8]): good | No. of spermatozoa (ganders [3]; [8]): 2.9 10^6 /mm^3 | Ratio of dead + deficient cells (ganders [3]; [8]): 12% | Sperm (ganders [3]; [8]): 0.30 mL | Motility of the spermatozoa (ganders [3]; [9]): good | No. of spermatozoa (ganders [3]; [9]): 2.9 10^6 /mm^3 | Ratio of dead + deficient cells (ganders [3]; [9]): 14% | Sperm (ganders [3]; [9]): 0.23 mL | Motility of the spermatozoa (ganders [3]; [10]): weak | No. of spermatozoa (ganders [3]; [10]): 2.1 10^6 /mm^3 | Ratio of dead + deficient cells (ganders [3]; [10]): 19% | Motility of the spermatozoa (ganders [3]; [11]): weak | No. of spermatozoa (ganders [3]; [11]): 2.3 10^6 /mm^3 | Ratio of dead + deficient cells (ganders [3]; [11]): 20% | Sperm (ganders [3]; [11]): 0.25 mL | Motility of the spermatozoa (ganders [3]; [12]): good | No. of spermatozoa (ganders [3]; [12]): 3.1 10^6 /mm^3 | Ratio of dead + deficient cells (ganders [3]; [12]): 17% | Sperm (ganders [3]; [12]): 0.44 mL | Motility of the spermatozoa (ganders [3]; [13]): good | No. of spermatozoa (ganders [3]; [13]): 3.0 10^6 /mm^3 | Ratio of dead + deficient cells (ganders [3]; [13]): 14% | Sperm (ganders [3]; [13]): 0.33 mL | Sperm (ganders [3]; "Landes" ganders, 0.5 μg/kg on January 28, 30, February 1, sampling January 15 (before treatment)): 0.19 mL | Motility of the spermatozoa (ganders [3]; [14]): medium | No. of spermatozoa (ganders [3]; [14]): 2.2 10^6 /mm^3 | Ratio of dead + deficient cells (ganders [3]; [14]): 19% | Sperm (ganders [3]; [14]): 0.32 mL | Motility of the spermatozoa (ganders [3]; [15]): good | No. of spermatozoa (ganders [3]; [15]): 2.0 10^6 /mm^3 | Ratio of dead + deficient cells (ganders [3]; [15]): 16% | Sperm (ganders [3]; [15]): 0.45 mL | Motility of the spermatozoa (ganders [3]; [16]): medium | No. of spermatozoa (ganders [3]; [16]): 2.0 10^6 /mm^3 | Ratio of dead + deficient cells (ganders [3]; [16]): 19% | Sperm (ganders [3]; [16]): 0.38 mL | Motility of the spermatozoa (ganders [3]; [17]): medium | No. of spermatozoa (ganders [3]; [17]): 2.2 10^6 /mm^3 | Ratio of dead + deficient cells (ganders [3]; [17]): 17% | Sperm (ganders [3]; [17]): 0.35 mL | Motility of the spermatozoa (ganders [3]; [18]): weak | No. of spermatozoa (ganders [3]; [18]): 1.9 10^6 /mm^3 | Ratio of dead + deficient cells (ganders [3]; [18]): 23% | Motility of the spermatozoa (ganders [3]; [19]): medium | No. of spermatozoa (ganders [3]; [19]): 2.0 10^6 /mm^3 | Ratio of dead + deficient cells (ganders [3]; [19]): 23% | Sperm (ganders [3]; [19]): 0.43 mL | Motility of the spermatozoa (ganders [3]; [20]): good | No. of spermatozoa (ganders [3]; [20]): 1.9 10^6 /mm^3 | Ratio of dead + deficient cells (ganders [3]; [20]): 20% | Sperm (ganders [3]; [20]): 0.18 mL | Motility of the spermatozoa (ganders [3]; [21]): medium | No. of spermatozoa (ganders [3]; [21]): 1.8 10^6 /mm^3 | Ratio of dead + deficient cells (ganders [3]; [21]): 19% | Sperm (ganders [3]; [21]): 0.20 mL | increase of the amount of sperm usable for artificial insemination (male angora rabbits): 2.5 fold | motility of spermatozoa in excess of the mean value (76%) of sperm from good males (male angora rabbits; in average, within 4 weeks after the treatment): 10% | libido of the animals (male angora rabbits; low-libido male angora rabbits, within 4 weeks after the treatment): significantly increased | sperm production relative to the average of sperm obtained from good males useful for breeding (male angora rabbits; weighed in ml, within 4 weeks after the treatment): 80%

(Asp-α-anilide)^6,desGly^10 -GnRH [Compound "B"]
Sperm production (male turkeys; after 30 days): 0.21 ml/animal | Sperm production (male turkeys; after 60 days): 0.28 ml/animal | Sperm production (male turkeys; [4]): 0.18 ml/animal
